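1) Cells in 96-well plates. 2) Compound, 48 h, 5 concentrations. 3) Linear interpolation between surrounding doses. 4) Unreached endpoint = highest concentration. GI50 is the concentration that inhibits growth by half. TGI denotes the concentration required for complete inhibition of growth.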
Tests used:
Assay in all cases: inhibition of tumour cell growth, NCI panel, 48 h
[1] = tested on: RPMI-8226 leukemia
[2] = tested on: A549 NSCLC
[3] = tested on: NCI-H460 lung
[4] = tested on: HS 578T breast
[5] = tested on: TK-10 renal
[6] = tested on: UO-31 renal
[7] = tested on: SNB-19 CNS
[8] = tested on: HCT-116 colon
[9] = tested on: A498 renal
[10] = tested on: IGROV1 ovarian
[11] = tested on: SK-MEL-5 melanoma
[12] = tested on: MOLT-4 leukemia
[13] = tested on: M14 melanoma
[14] = tested on: HL-60(TB) leukemia
[15] = tested on: NCI-H23 lung
[16] = tested on: CCRF-CEM leukemia
[17] = tested on: HOP-62 NSCLC
[18] = tested on: HOP-92 NSCLC
[19] = tested on: OVCAR-8 ovarian
[20] = tested on: MDA-N
[21] = tested on: UACC-62 melanoma
[22] = tested on: MCF7 breast
[23] = tested on: HT29 colon
[24] = tested on: K-562 leukemia
[25] = tested on: SK-MEL-2 melanoma
[26] = tested on: NCI/ADR-RES ovarian
[27] = tested on: SW-620 colon
[28] = tested on: EKVX NSCLC
[29] = tested on: SK-OV-3 ovarian
[30] = tested on: ACHN renal
[31] = tested on: MDA-MB-435
[32] = tested on: HCT-15 colon
[33] = tested on: SF-539 CNS
[34] = tested on: CAKI-1 renal
[35] = tested on: COLO 205 colon
[36] = tested on: 786-0 renal
[37] = tested on: OVCAR-4 ovarian
[38] = tested on: LOX IMVI melanoma
[39] = tested on: MALME-3M melanoma
[40] = tested on: HCC-2998 colon
[41] = tested on: SF-295 CNS
[42] = tested on: OVCAR-5 ovarian
[43] = tested on: BT-549 breast
[44] = tested on: UACC-257 melanoma
[45] = tested on: SN12C renal
[46] = tested on: NCI-H226 lung
[47] = tested on: DU-145 prostate
[48] = tested on: RXF 393 renal
[49] = tested on: SNB-75 CNS
[50] = tested on: NCI-H522 lung
[51] = tested on: SR leukemia
[52] = tested on: OVCAR-3 ovarian
[53] = tested on: KM12 colon
[54] = tested on: T-47D breast
[55] = tested on: SF-268 CNS
[56] = tested on: U251 CNS
[57] = tested on: PC-3 prostate
[58] = tested on: SK-MEL-28 melanoma
[59] = tested on: MDA-MB-231 breast

Compound: O=c1cc(-c2ccccc2)oc2ccc(-c3ccc4oc(-c5ccccc5)cc(=O)c4c3)cc12
- TGI [1]: 32.6 µM
- TGI [2]: 50.6 µM
- TGI [3]: 41.9 µM
- TGI [4]: 37.4 µM
- TGI [5]: 61.6 µM
- TGI [6]: 21.7 µM
- TGI [7]: 50 µM
- TGI [8]: 31.2 µM
- TGI [9]: 27.9 µM
- TGI [10]: 84.5 µM
- TGI [11]: 25.5 µM
- TGI [12]: 27.5 µM
- TGI [13]: 30.2 µM
- TGI [14]: 27.8 µM
- TGI [15]: 34.5 µM
- TGI [16]: 43.7 µM
- TGI [17]: 36.5 µM
- TGI [18]: 30.8 µM
- TGI [19]: 35.2 µM
- TGI [20]: 29 µM
- TGI [21]: 31.8 µM
- TGI [22]: 42.1 µM
- TGI [23]: > 100 µM
- TGI [24]: 34.3 µM
- TGI [25]: 32.7 µM
- TGI [26]: 51.5 µM
- TGI [27]: > 100 µM
- TGI [28]: 20.1 µM
- TGI [29]: > 100 µM
- TGI [30]: 59.2 µM
- TGI [31]: 35.7 µM
- TGI [32]: 30 µM
- TGI [33]: 30.8 µM
- TGI [34]: 46 µM
- TGI [35]: 41.5 µM
- TGI [36]: 72.5 µM
- TGI [37]: 38.9 µM
- TGI [38]: 33.2 µM
- TGI [39]: 34.7 µM
- TGI [40]: 30 µM
- TGI [41]: 43.4 µM
- TGI [42]: > 100 µM

Compound: CC1(C)N=C(N)N=C(N)N1c1cccc(CCCCc2ccccc2)c1
- GI50 [43]: 0.901 µM
- TGI [43]: 3.99 µM
- GI50 [1]: 0.289 µM
- TGI [1]: 2.72 µM
- GI50 [2]: 0.0382 µM
- TGI [2]: 1.35 µM
- GI50 [3]: 0.0493 µM
- TGI [3]: 11.4 µM
- GI50 [44]: 0.78 µM
- TGI [44]: 12.1 µM
- GI50 [45]: 0.427 µM
- TGI [45]: 12.3 µM
- GI50 [4]: 4.57 µM
- TGI [4]: 28.5 µM
- GI50 [5]: 0.704 µM
- TGI [5]: 20.3 µM
- GI50 [46]: 2.35 µM
- TGI [46]: 24.5 µM
- GI50 [6]: 10.2 µM
- TGI [6]: 32 µM
- GI50 [7]: 0.907 µM
- TGI [7]: 16.6 µM
- GI50 [8]: 0.0501 µM
- TGI [8]: 17 µM
- GI50 [9]: 1.75 µM
- TGI [9]: 15.9 µM
- GI50 [10]: 0.135 µM
- TGI [10]: 10.1 µM
- GI50 [11]: 0.198 µM
- TGI [11]: 1.36 µM
- GI50 [12]: 0.319 µM
- TGI [12]: 8.76 µM
- GI50 [47]: 0.351 µM
- TGI [47]: 15 µM
- GI50 [13]: 0.657 µM
- TGI [13]: 18.6 µM
- GI50 [14]: 0.0925 µM
- TGI [14]: 2.52 µM
- GI50 [15]: 0.402 µM
- TGI [15]: 14.1 µM
- GI50 [48]: 2.28 µM
- TGI [48]: 17.2 µM
- GI50 [16]: 0.123 µM
- TGI [16]: 7.04 µM
- GI50 [49]: 3.06 µM
- TGI [49]: 16.3 µM
- GI50 [17]: 0.556 µM
- TGI [17]: 22.2 µM
- GI50 [18]: 0.326 µM
- TGI [18]: 4.44 µM
- GI50 [19]: 0.262 µM
- TGI [19]: 16 µM
- GI50 [50]: 0.691 µM
- TGI [50]: 13.7 µM
- GI50 [21]: 0.186 µM
- TGI [21]: 10.9 µM
- GI50 [22]: 0.312 µM
- TGI [22]: 10.2 µM
- GI50 [51]: 0.188 µM
- TGI [51]: 2.89 µM
- GI50 [23]: 0.0543 µM
- TGI [23]: 11.6 µM
- GI50 [24]: 0.0688 µM
- TGI [24]: 13.6 µM
- GI50 [25]: 1.82 µM
- TGI [25]: 11.4 µM
- GI50 [26]: > 73.4 µM
- TGI [26]: > 100 µM
- GI50 [27]: 0.0532 µM
- TGI [27]: 16.4 µM
- GI50 [28]: 0.87 µM
- TGI [28]: 20.6 µM
- GI50 [29]: 1.98 µM
- TGI [29]: 17 µM
- GI50 [30]: 3.22 µM
- TGI [30]: 19.7 µM
- GI50 [31]: 0.0616 µM
- TGI [31]: 11.9 µM
- GI50 [32]: 1.73 µM
- TGI [32]: 21.7 µM
- GI50 [33]: 0.212 µM
- TGI [33]: 7.39 µM
- GI50 [34]: 4.15 µM
- TGI [34]: 22.3 µM
- GI50 [35]: 0.448 µM
- TGI [35]: 2.36 µM
- GI50 [36]: 0.518 µM
- TGI [36]: 16.4 µM
- GI50 [52]: 0.35 µM
- TGI [52]: 8.74 µM
- GI50 [53]: 0.212 µM
- TGI [53]: 1.86 µM
- GI50 [37]: 0.433 µM
- TGI [37]: 18.8 µM
- GI50 [54]: 1.28 µM
- TGI [54]: 16.2 µM
- GI50 [55]: 0.0735 µM
- TGI [55]: 15 µM
- GI50 [38]: 0.062 µM
- TGI [38]: 14.9 µM
- GI50 [56]: 0.0541 µM
- TGI [56]: 13.5 µM
- GI50 [57]: 0.0497 µM
- TGI [57]: 3.09 µM
- GI50 [39]: 2.31 µM
- TGI [39]: 14.8 µM
- GI50 [58]: 0.894 µM
- TGI [58]: 15.6 µM
- GI50 [40]: 0.195 µM
- TGI [40]: 3.82 µM
- GI50 [59]: 2.47 µM
- TGI [59]: 21.3 µM
- GI50 [41]: 0.229 µM
- TGI [41]: 5.79 µM
- GI50 [42]: 11.1 µM
- TGI [42]: 25.9 µM
